A short description of test [1]: HepG2 cell cytotoxicity, dose response, cytotoxicity control, plate reader, dry powder, set 3 (AID 720714). The following applies: HepG2 cytotoxicity, plate reader; at 26 µM (top of the series).
The test system of test [2] is HepG2 cytotoxicity, plate reader. The test is described as above.

Structures are written as SMILES. Calls of active or inactive are those of the source. No rule for the calls is given here.

Turning to `CCCOc1ccccc1C1CC(=O)Nc2cc3c(cc21)OCO3` (stereo unspecified), in test [1], the activity change, negative = cytotoxicity was 73.2% (inactive). As to `CC(C)[C@H](NC(=O)OC(C)(C)C)c1nnc(S(=O)(=O)Cc2c(F)cccc2Cl)o1`, the activity change, negative = cytotoxicity in test [1] is -90.6% (inactive). As for `CN(C)c1nc(-c2ccccn2)nnc1-c1ccccc1`, the AC50 in test [2] was 26.5 µM. Turning to `CC(=O)Nc1cccc(NC(=O)CSc2ncc(-c3ccc(Cl)cc3)n2Cc2ccco2)c1`, the activity change, negative = cytotoxicity in test [1] was -23% (inactive). For the compound `CC(C)(C)NC(=O)CSc1nc2ccc(NC(=O)CSc3nnnn3Cc3ccccc3)cc2s1`, in test [2], the AC50 is 15.5 µM. Regarding `Cc1ccc2cc(CN(CC3CCCO3)C(=O)NC3CCCCC3)c(=O)[nH]c2c1C` (stereo unspecified), the activity change, negative = cytotoxicity in test [1] was 64.3% (inactive). Consider `Fc1ccc(-n2nnnc2-c2cnc(-c3cccs3)nc2C(F)(F)F)cc1`, for which the activity change, negative = cytotoxicity in test [1] is 23.6% (inactive). Take `COc1ccc(NS(=O)(=O)c2ccc(C(=O)N3CCCCCC3)cc2)cc1`: in test [1], the activity change, negative = cytotoxicity is 41.5% (inactive). Take `COc1ccc(NC(=O)c2nc(S(=O)(=O)Cc3cccc(C)c3)ncc2Cl)c(OC)c1`: the activity change, negative = cytotoxicity in test [1] is -19.7% (inactive).

For the compound `COc1ccc(Nc2nc(N3CCCCC3)c3ccccc3n2)cc1`, the activity change, negative = cytotoxicity in test [1] is -24.8% (inactive). Take `COc1cc(CN2CCc3ccccc3C2)ccc1O`: the AC50 in test [2] is 21.6 µM.

As for `CN(C(=O)COc1ccccc1C(=O)NCCOc1ccccc1)c1ccccc1`, the activity change, negative = cytotoxicity in test [1] was -26.1% (inactive).

For the compound `CCOC(=O)C1CCN(C(=O)c2ccc(OCC(=O)Nc3cccc(C(F)(F)F)c3)c(OC)c2)CC1`, the activity change, negative = cytotoxicity in test [1] was 11.7% (inactive). The same measure, in the same setting: for `COc1cc2ncnc(N[C@H](C)c3ccccc3)c2cc1OC` the value was 45.6% (inactive). For the compound `O=c1c2ccccc2nc2n1C(CSCc1ccc(Cl)cc1Cl)CS2` (stereo unspecified), the activity change, negative = cytotoxicity in test [1] was -17.2% (inactive).

Take `Cc1cc(N2CCCC2=O)cc(C)c1S(=O)(=O)NCCOc1ccc(C(C)(C)C)cc1`: the activity change, negative = cytotoxicity in test [1] was 15.4% (inactive).

Turning to `COc1ccc2c(c1)c(CC(=O)Nc1cc(C)ccc1C)c(C)n2C(=O)c1ccc(Cl)cc1`, the activity change, negative = cytotoxicity in test [1] is 8.4% (inactive). On the same count and under the same terms, for `CN(C)S(=O)(=O)c1cccc(NC(=O)c2cccc(S(=O)(=O)N3CCc4ccccc43)c2)c1` the value was 10.3% (inactive); for `Nc1nonc1C(=O)NCCNCc1cc(Br)ccc1OCc1ccc(F)cc1`, -54.9% (inactive).

Take `Cc1cc2c(cc(C(=O)N3CCC(C(=O)NC4CCCC4)CC3)n2Cc2c(F)cccc2Cl)o1`: in test [1], the activity change, negative = cytotoxicity was 132% (inactive). With `O=C(c1nnsc1S(=O)c1ccc(Cl)cc1)N1CCOCC1` (stereo unspecified), the half-maximal activity concentration (AC50) in test [2] was 14.5 µM. `CN(CC(=O)Nc1cccc(S(=O)(=O)N2CCOCC2)c1)CC(=O)Nc1ccc(Cl)c(C(F)(F)F)c1`: in test [1], the activity change, negative = cytotoxicity is -15.1% (inactive). The same measure, in the same setting: for `O=C1CSc2ccc(C(=O)Nc3cccc(S(=O)(=O)Nc4ccc(Br)cc4)c3)cc2N1` the value was -35.1% (inactive).

Take `CCCc1nnc(NC(=O)c2nc(S(=O)(=O)Cc3ccc(C)cc3)ncc2Cl)s1`: the activity change, negative = cytotoxicity in test [1] was 26.2% (inactive). The same measure, in the same setting: for `CC(=O)N1CCN(C(=O)CCc2cc(C(C)(C)C)c(O)c(C(C)(C)C)c2)CC1` the value was 84.8% (inactive); for `COc1ccccc1N1CCN(c2ncc(C(=O)N3CCN(c4cccc(Cl)c4)CC3)c3ccccc23)CC1`, 111% (inactive).

Usually AC50 stands for the concentration at which the activity in the assay is half-maximal.
